Ki data for 13 compounds are collected here from patent US7250442B2, “Dihydroindol-2-one derivatives as steroid hormone nuclear receptor modulators” (Eli Lilly and Company, priority 2003, dated 2007).

In this assay the target is T1, human MR (Homo sapiens, UniProt P08235).
T1 construct: The full length human MR gene is cloned from a human kidney or human brain cDNA library; made in house; host or cells: Sf9 insect cells (baculovirus, pAcHLT transfer vector)
T1 sequence (P08235 1-984): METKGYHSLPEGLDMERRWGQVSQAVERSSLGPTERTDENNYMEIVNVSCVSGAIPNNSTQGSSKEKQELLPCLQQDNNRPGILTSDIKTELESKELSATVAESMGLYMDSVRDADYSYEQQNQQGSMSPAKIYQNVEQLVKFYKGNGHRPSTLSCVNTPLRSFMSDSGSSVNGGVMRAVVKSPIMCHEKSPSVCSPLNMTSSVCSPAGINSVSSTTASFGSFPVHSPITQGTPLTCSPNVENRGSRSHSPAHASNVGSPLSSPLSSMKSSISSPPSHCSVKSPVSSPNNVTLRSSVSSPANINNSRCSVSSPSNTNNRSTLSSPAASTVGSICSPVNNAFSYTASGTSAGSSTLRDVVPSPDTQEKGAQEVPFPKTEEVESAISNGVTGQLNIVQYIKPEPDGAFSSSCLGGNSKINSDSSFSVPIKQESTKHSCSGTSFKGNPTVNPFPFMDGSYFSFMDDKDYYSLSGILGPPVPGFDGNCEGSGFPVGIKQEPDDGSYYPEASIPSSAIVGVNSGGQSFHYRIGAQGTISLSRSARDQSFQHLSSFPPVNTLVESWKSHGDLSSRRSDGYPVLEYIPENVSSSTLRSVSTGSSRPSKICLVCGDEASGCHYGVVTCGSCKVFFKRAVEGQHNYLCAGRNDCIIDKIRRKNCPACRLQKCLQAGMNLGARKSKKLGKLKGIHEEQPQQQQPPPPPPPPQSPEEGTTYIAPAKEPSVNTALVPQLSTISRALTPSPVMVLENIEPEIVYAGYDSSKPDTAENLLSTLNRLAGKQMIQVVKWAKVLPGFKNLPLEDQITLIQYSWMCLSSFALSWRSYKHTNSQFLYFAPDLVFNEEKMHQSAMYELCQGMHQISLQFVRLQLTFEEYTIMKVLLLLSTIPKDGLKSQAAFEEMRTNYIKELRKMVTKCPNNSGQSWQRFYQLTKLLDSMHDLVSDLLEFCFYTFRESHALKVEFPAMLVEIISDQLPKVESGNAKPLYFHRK
As to the kind of experiment: Mineralocorticoid Receptor Binding Assay ([3H]-aldosterone displacement). Conditions: full length human MR expressed in Sf9 cells, 0.5 nM [3H]-aldosterone. The gist of the method:
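Full-length human MR expressed in Sf9 cells; lysate (20-25 μg protein) incubated with 0.5 nM [3H]-aldosterone and test compound in molybdate/Tris/phosphate/glycerol buffer pH 7.5, 16 h at 4 °C. Bound ligand measured by filtration and scintillation counting; IC50 converted to Ki via Cheng-Prusoff.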

Regarding `Cc1cc(C2(c3cc(C)c(O)c(C)c3)C(=O)N(Cc3ccc(Cl)cc3F)c3ccccc32)cc(C)c1O` [Example 83, 1-(4-Chloro-2-fluoro-benzyl)-3,3-bis-(4-hydroxy-3,5-dimethyl-phenyl)-1,3-dihydro-indol-2-one], the inhibition constant (Ki) (as a rule, the dissociation constant of the complex between target and ligand, obtained from inhibition or displacement) is at most 0.5 µM. `Cc1cc(C2(c3cc(C)c(O)c(C)c3)C(=O)N(Cc3ccc(-c4csnn4)cc3)c3ccccc32)cc(C)c1O` [Example 84, 3,3-Bis-(4-hydroxy-3,5-dimethyl-phenyl)-1-(4-[1,2,3]thiadiazol-4-yl-benzyl)-1,3-dihydro-indol-2-one] had a Ki of at most 0.5 µM.

For the compound `Cc1cc(C2(c3cc(C)c(O)c(C)c3)C(=O)N(Cc3cccc([N+](=O)[O-])c3)c3ccccc32)cc(C)c1O` [Example 85, 3,3-Bis-(4-hydroxy-3,5-dimethyl-phenyl)-1-(3-nitro-benzyl)-1,3-dihydro-indol-2-one], the inhibition constant (Ki) was at most 0.5 µM. In the case of `Cc1cc(C2(c3cc(C)c(O)c(C)c3)C(=O)N(Cc3noc(C4CCC4)n3)c3ccccc32)cc(C)c1O` [Example 86, 1-(5-Cyclobutyl-[1,2,4]oxadiazol-3-ylmethyl)-3,3-bis-(4-hydroxy-3,5-dimethyl-phenyl)-1,3-dihydro-indol-2-one] it was at most 0.5 µM; in that of `Cc1cc(C2(c3cc(C)c(O)c(C)c3)C(=O)N(Cc3noc(-c4ccco4)n3)c3ccccc32)cc(C)c1O` [Example 87, 1-(5-Furan-2-yl-[1,2,4]oxadiazol-3-ylmethyl)-3,3-bis-(4-hydroxy-3,5-dimethyl-phenyl)-1,3-dihydro-indol-2-one], at most 0.5 µM; in that of `CCc1nc(CN2C(=O)C(c3cc(C)c(O)c(C)c3)(c3cc(C)c(O)c(C)c3)c3ccccc32)cs1` [Example 90, 1-(2-Ethyl-thiazol-4-ylmethyl)-3,3-bis-(4-hydroxy-3,5-dimethyl-phenyl)-1,3-dihydro-indol-2-one], at most 0.5 µM. In the case of `Cc1cc(C2(c3cc(C)c(O)c(C)c3)C(=O)N(Cc3csc(-c4ccccc4)n3)c3ccccc32)cc(C)c1O` [Example 91, 3,3-Bis-(4-hydroxy-3,5-dimethyl-phenyl)-1-(2-phenyl-thiazol-4-ylmethyl)-1,3-dihydro-indol-2-one] it was at most 0.5 µM; in that of `Cc1ccc2c(c1)C(c1cc(C)c(O)c(C)c1)(c1cc(C)c(O)c(C)c1)C(=O)N2Cc1csc(-c2ccccc2)n1` [Example 92, 3,3-Bis-(4-hydroxy-3,5-dimethyl-phenyl)-5-methyl-1-(2-phenyl-thiazol-4-ylmethyl)-1,3-dihydro-indol-2-one], at most 0.5 µM. In the case of `COc1ccc(-c2nc(CN3C(=O)C(c4cc(C)c(O)c(C)c4)(c4cc(C)c(O)c(C)c4)c4ccccc43)cs2)cc1` [Example 94, 3,3-Bis-(4-hydroxy-3,5-dimethyl-phenyl)-1-[2-(4-methoxy-phenyl)-thiazol-4-ylmethyl]-1,3-dihydro-indol-2-one] it was at most 0.5 µM.

Compound `COc1ccc(-c2nc(CN3C(=O)C(c4cc(C)c(O)c(C)c4)(c4cc(C)c(O)c(C)c4)c4cc(C)ccc43)cs2)cc1` [Example 95, 3,3-Bis-(4-hydroxy-3,5-dimethyl-phenyl)-1-[2-(4-methoxy-phenyl)-thiazol-4-ylmethyl]-5-methyl-1,3-dihydro-indol-2-one] registered a Ki of at most 0.5 µM.

`Cc1cc(C2(c3cc(C)c(O)c(C)c3)C(=O)N(Cc3ccc4ccccc4n3)c3ccccc32)cc(C)c1O` [Example 97, 3,3-Bis-(4-hydroxy-3,5-dimethyl-phenyl)-1-quinolin-2-ylmethyl-1,3-dihydro-indol-2-one] yielded a Ki of at most 0.5 µM.

With `COc1ccc(-c2nc(CN3C(=O)C(c4cc(C)c(O)c(C)c4)(c4cc(C)c(O)c(C)c4)c4ccccc43)no2)cc1` [Example 99, 3,3-Bis-(4-hydroxy-3,5-dimethyl-phenyl)-1-[5-(4-methoxy-phenyl)-[1,2,4]oxadiazol-3-ylmethyl]-1,3-dihydro-indol-2-one], the inhibition constant Ki was at most 0.5 µM. The compound `C#CCN1C(=O)C(c2cc(C)c(O)c(C)c2)(c2cc(C)c(O)c(C)c2)c2ccccc21` [Example 101, 3,3-Bis-(4-hydroxy-3,5-dimethyl-phenyl)-1-prop-2-ynyl-1,3-dihydro-indol-2-one] had a Ki of at most 0.5 µM.
